Measurements as given in PubChem BioAssay (NCI).
Several values for one entry are separate records, joined by “and”; a condition that tells them apart may be missing. Identical values can stand only once.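 The compound was tested at five concentrations on cells cultured in 96-well plates, with a 48-hour exposure period. GI50: concentration for 50% inhibition of growth. Definition used: TGI = concentration required for complete inhibition of growth.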 Where a SMILES comes first, the peptide text is derived from it. [ ]: non-standard residue; d: D form. The star is where a group is joined. ξ: configuration not given here. dIva = CC[C@@](C)(N)C(=O)O; Aib = CC(C)(N)C(=O)O; ξP = O=C(O)C1CCCN1; βAla = NCCC(=O)O; X5 = OCN*

Experiments:
Experiment in all cases: NCI-60 cell line screen, 48 h
PC-3 prostate = tested on: PC-3 prostate
BT-549 breast = tested on: BT-549 breast
DMS 273 small cell lung = tested on: DMS 273 small cell lung
DMS 114 small cell lung = tested on: DMS 114 small cell lung
DLD-1 colon = tested on: DLD-1 colon
M19-MEL melanoma = tested on: M19-MEL melanoma
HOP-18 NSCLC = tested on: HOP-18 NSCLC
MDA-N = tested on: MDA-N
LXFL 529 NSCLC = tested on: LXFL 529 NSCLC

Row | Compound | GI50 (PC-3 prostate) | TGI (PC-3 prostate) | GI50 (BT-549 breast) | TGI (BT-549 breast) | other results
1 | COn1cc(C(=O)N=C(SC)SC)c2ccccc21 | 25.1 µM | > 100 µM | 19.2 µM | 63.3 µM | –
2 | C[C@H](CCCOS(C)(=O)=O)[C@H]1CC[C@H]2[C@@H]3CC[C@@H]4C[C@H](OS(C)(=O)=O)CC[C@]4(C)[C@H]3CC[C@]12C | 852 µM | – | – | – | –
3 | CC(=O)N1c2ccc(-c3ccc(C(=O)O)cc3)cc2[C@H](Nc2ccc(Cl)cc2)C[C@@H]1C | 1.24 µM | 28.7 µM | 1.27 µM | 29.6 µM | –
4 | COc1ccc(-c2cc3c(N)ncnc3o2)cc1 | > 25 µM | > 25 µM | > 25 µM | > 25 µM | –
5 | Nc1cc(N)c2nc(-c3ccccc3)c(Oc3ccc(Cl)c(Cl)c3)nc2c1 | 15.5 µM | > 100 µM | – | – | –
6 | COC(=O)C(C(=O)C(=O)Nc1ccc(N)cc1[N+](=O)[O-])c1nc2ccc(Cl)cc2[nH]c1=O (stereo unspecified) | – | – | – | – | TGI (DMS 273 small cell lung): > 100 µM; TGI (DMS 114 small cell lung): > 100 µM; TGI (DLD-1 colon): > 100 µM; TGI (M19-MEL melanoma): > 100 µM; TGI (HOP-18 NSCLC): > 100 µM
7 | COc1ccc2c(c1)C(=O)c1c-2n(CCCNCCO)c(=O)c2cc([N+](=O)[O-])ccc12 | < 0.0137 µM | 1.33 µM | 0.0226 µM | 1.21 µM | –
8 | CCC(=O)OCN1C(=O)C=CC1=O | – | 33.1 µM and 30.9 µM | – | 33.3 µM and 34.4 µM | TGI (MDA-N): 31.4 µM
9 | CC(C)Cn1cnc2c(SCc3ccccn3)nc(N)nc21 | – | > 100 µM | – | > 100 µM | TGI (MDA-N): > 100 µM
10 | O=C(OCc1ccccc1)c1ccccc1-c1c2ccc(=O)cc-2oc2cc(OCc3ccccc3)ccc12 | – | – | – | – | TGI (LXFL 529 NSCLC): > 100 µM; TGI (DMS 273 small cell lung): > 100 µM; TGI (DLD-1 colon): 39.1 µM; TGI (M19-MEL melanoma): > 100 µM
11 | O=C(O)CSc1nnc2c3ccccc3c3ccccc3c2n1 | – | > 100 µM | – | > 100 µM | TGI (MDA-N): > 100 µM
12 | CCC(=O)Oc1ccc(/C=N/NC(N)=S)nc1 | 6.83 µM | > 100 µM | 11.9 µM | > 100 µM | –
13 | CC1CC2(C)CC(=O)C1C1C(=O)N(CCN3CCOCC3)C(=O)C12 (stereo unspecified) | > 100 µM | > 100 µM | > 100 µM | > 100 µM | –
14 | O=C(CN1CCN(c2ccccn2)CC1)Nc1ccc(Cl)cc1C(=O)c1ccccc1Cl | 6 µM | > 100 µM | 81.4 µM | > 100 µM | –
15 | COc1ccc(CNC(=O)c2c(C)n([O-])c3cc(F)c(F)cc3[n+]2=O)cc1 | 11.7 µM | 23.9 µM | 13.8 µM | 26.8 µM | –
16 | CCN1C(=O)N(CC)C2C1NN=c1s/c(=C\c3cnc(C)n3C)c(=O)n12 (stereo unspecified) | 2.07 µM | > 100 µM | 3.66 µM | 90.9 µM | –
17 | CC[C@@](C)(NC(=O)[C@H](C)NC(=O)CCNC(=O)C(C)(C)NC(=O)[C@H](C)NC(=O)[C@@H]1CCCN1C(=O)[C@@](C)(CC)NC(=O)[C@H](Cc1ccccc1)NC(=O)C1CCCN1C(=O)C(C)(C)NC(=O)C1CCCN1C(=O)C(C)(C)NC(C)=O)C(=O)NCCC(=O)N[C@@H](CC(C)C)C(=O)NC(C)(C)C(=O)NCCC(=O)N[C@@H](CC(C)C)C(=O)NC(C)(C)C(=O)NC(C)(C)C(=O)N[C@@H](CC(C)C)C(=O)NCCC(=O)NCO (stereo partly specified) (Ac-[Aib][ξP][Aib][ξP]F[dIva]PA[Aib][βAla]A[dIva][βAla]L[Aib][βAla]L[Aib][Aib]L[βAla]-X5) | 0.0765 µM | 0.264 µM | 0.0699 µM | 0.266 µM | –
18 | Nc1nc(N)c(-c2ccc(Cl)cc2)c(/C=C/c2ccc([N+](=O)[O-])cc2)n1 | 3.9 µM | > 100 µM | 13.1 µM | 90.3 µM | –
19 | CCc1cccc(CC)c1NC(=O)C1=CNC(C)=C(C(=O)Nc2c(CC)cccc2CC)C1c1ccc(O)c(OC)c1 (stereo unspecified) | – | – | – | – | TGI (LXFL 529 NSCLC): > 100 µM; TGI (DMS 114 small cell lung): > 100 µM; TGI (DLD-1 colon): > 100 µM; TGI (M19-MEL melanoma): > 100 µM

Row | Compound | GI50 (PC-3 prostate) | TGI (PC-3 prostate) | GI50 (BT-549 breast) | TGI (BT-549 breast) | other results
20 | CCN(CC)c1ccc(N=C2C=CC(=C(C#N)C#N)c3ccccc32)c(C)c1 | – | – | – | – | TGI (DMS 273 small cell lung): 6.51 µM; TGI (DLD-1 colon): 6.5 µM; TGI (M19-MEL melanoma): 5.77 µM; TGI (HOP-18 NSCLC): 10.3 µM
21 | CC(C)CC1NC(=O)C(C(C)C)NC(=O)CC(C)COC(=O)C(CC(C)C)N(C)C(=O)C(C(C)C)NC(=O)C(C(C)C)OC1=O (stereo unspecified) | – | > 50 µM | – | > 50 µM | TGI (MDA-N): > 50 µM
22 | CC1(C)N=C(N)N=C(N)N1c1ccc(CCC(=O)Nc2cccc(S(=O)(=O)F)c2)cc1 | 0.597 µM | > 100 µM | 7.21 µM | > 100 µM | –
23 | NS(=O)(=O)c1ccc(N=Nc2c(=O)[nH]c3ccc4[nH]cccc4c23)cc1 | 0.583 µM | > 25 µM | 0.498 µM | 1.72 µM | –
24 | CC(=O)CC(=O)ON(C)C(=O)Cc1ccccc1 | – | – | – | – | TGI (LXFL 529 NSCLC): > 100 µM; TGI (DMS 273 small cell lung): > 100 µM; TGI (DMS 114 small cell lung): > 100 µM; TGI (DLD-1 colon): > 100 µM; TGI (M19-MEL melanoma): > 100 µM
25 | Cc1c(C(=O)Nc2ccc(Cl)cc2)nc(N)nc1-c1cccc(Cl)c1 | – | – | – | – | TGI (DMS 273 small cell lung): > 100 µM; TGI (DMS 114 small cell lung): > 100 µM; TGI (DLD-1 colon): > 100 µM; TGI (M19-MEL melanoma): > 100 µM; TGI (HOP-18 NSCLC): > 100 µM
26 | CC1SC(c2cccc(Cl)c2)N(NC(=O)C(O)c2ccccc2)C1=O (stereo unspecified) | > 100 µM | > 100 µM | > 100 µM | > 100 µM | –
27 | CCCNC(=O)Nc1ccc2c(c1)Cc1cc(N(CCCl)CCCl)ccc1-2 | – | > 100 µM | – | 85 µM | –
28 | C=C1C(OCCO)OC2O[C@]3(C)CCC4[C@H](C)CCC1C24OO3 (stereo partly specified) | 4.11 µM | > 100 µM | 10.8 µM | 71.2 µM | GI50 (MDA-N): 14.8 µM; TGI (MDA-N): 87.9 µM
29 | CCCC(CCC)C(=O)O | > 100 µM | > 20000 µM | > 100 µM | > 20000 µM | TGI (MDA-N): > 100 µM
30 | COc1ccc([Se]c2ccc(OC)cc2)cc1 | – | – | – | – | TGI (DMS 273 small cell lung): > 100 µM; TGI (DMS 114 small cell lung): > 100 µM; TGI (DLD-1 colon): > 100 µM; TGI (M19-MEL melanoma): > 100 µM; TGI (HOP-18 NSCLC): > 100 µM
31 | NCCNc1ncnc2ccc(Cl)cc12 | – | > 100 µM | – | > 100 µM | TGI (MDA-N): > 100 µM
32 | CN1C(=O)C(C)(C)Oc2c(-c3cn(C)c(=O)c4[nH]ccc34)cc(S(C)(=O)=O)cc21 | 2.01 µM | > 100 µM | 1.09 µM | 14.7 µM | –
33 | NC(N)=NC(N)=NCc1ccco1 | – | – | 336 µM and 974 µM | > 1250 µM | –
34 | CC(=O)Nc1cc(CN2CCCCC2)c(O)c2ncccc12 | – | 81 µM | – | > 100 µM | TGI (MDA-N): > 100 µM
35 | COc1ccc(-c2cc(=O)c3cccnc3[nH]2)cc1 | 31.7 µM | > 100 µM | – | > 100 µM | GI50 (MDA-N): 20.8 µM; TGI (MDA-N): 78.3 µM
36 | CC(=O)OC1(C#N)CC2OC1C1NC21 (stereo unspecified) | – | – | – | – | TGI (LXFL 529 NSCLC): > 100 µM; TGI (DMS 114 small cell lung): > 100 µM; TGI (DLD-1 colon): > 100 µM; TGI (M19-MEL melanoma): > 100 µM
37 | C=CC(=O)Nc1cccc(Nc2nc(Nc3ccc(N4CCN(C(C)=O)CC4)cc3OC)ncc2C(F)(F)F)c1 | 9.75 µM and 4.73 µM | > 10 µM and 27.7 µM | 4.14 µM | > 10 µM and 10.6 µM | –
